Patent publication US10064942B2, “Copper-cysteamine and methods of use” (THE BOARD OF REGENTS, THE UNIVERSITY OF TEXAS SYSTEM, priority 2013, dated 2018)

Tests used:
MCF-7 cells = test: MTT cytotoxicity of Cu-Cy crystals in MCF-7 cells; format: cell-based, human; conditions: 24 h incubation
Description: The toxicity of Cu-Cy crystals in MCF-7 cells was evaluated using an MTT (3-(4,5-dimethylthiazol-2-yl)-2,5-diphenyltetrazoliumbromide) assay. 2 mg of the Cu-Cy crystals were well ground and sonicated before being dissolved in 1 mL of DI water (control) for the measurement.
Cytotoxicity was evaluated using the MTT assay. Approximately 2,000 cells/well MCF-7 cells were seeded into 96-well plates and allowed to grow for 48 hours in an incubator (Sanyo, Japan, 5% CO2, 37° C., humidified atmosphere). On the day of the experiment, after removing the culture medium, different volumes of media containing Cu-Cy particles were added to their respective wells and cytotoxicity was evaluated after 24 h of cell incubation

[1] = test system: human hepatocellular liver cells (HEPT); test: UV light (350 nm) destruction of liver cells, calcein/EthD-1 fluorescence imaging; format: cell-based
From the text: FIGS. 11A-11D depict the comparison of UV light (350 nm) destruction on human hepatocellular liver cells (HEPT) without (top row, FIG. 11A and FIG. 11B) and with (bottom row, FIG. 11C and FIG. 11D) Cu-Cy crystals. […] The scale bar is always 100 μm.
FIGS. 11A-11D depict the effectiveness of the Cu-Cy material as causing cell death when irradiated with UV light or X-ray. For example, in FIGS. 11A-11D, the fluorescence images of human hepatocellular liver cells were taken before and after the UV light exposure (350 nm, for 2 minutes, from an OLYMPUS IX71 microscope). Calcein and Ethidium homodimer 1 (EthD-1) were used as the stains showing cell alive (green) and death (red) respectively.
Each of the images was taken right after the staining without further liver cell incubation.

[2] = test system: human breast cancer (MCF-7) cells; test: UV light (350 nm) destruction of MCF-7 cells, fluorescence imaging; format: cell-based; conditions: MCF-7 cells exposed to Cu-Cy and irradiated with UV light (350 nm)
From the text: FIGS. 12A-12D depict the comparison of UV light (350 nm) destruction on human breast cancer (MCF-7) cells without (top row, FIG. 12A and FIG. 12B) and with (bottom row, FIG. 12C and FIG. 12D) Cu-Cy crystals. […] The scale bar is always 100 μm.
Photo-induced toxicity was then applied to cancer cells.

[3] = test system: human breast cancer (MCF-7) cells; test: X-ray destruction of MCF-7 cells, calcein/EthD-1 fluorescence imaging; format: cell-based
From the text: FIGS. 13A-13D depict the comparison of X-ray (2 Gy) destruction on human breast cancer (MCF-7) cells without (top row, FIG. 14A and FIG. 14B) and with (bottom row, FIG. 14C and FIG. 14D) Cu-Cy crystals. […] The scale bar is always 100 μm.
As stated herein above, the disclosed Cu-Cy compound also absorbs X-rays and emits a luminescent spectrum. FIG. 13A-13D depicts the MCF-7 cell viabilities by fluorescence images with and without Cu-Cy crystals and with and without X-ray irradiation. As with UV radiation, X-ray irradiation of cells incubated with the disclosed Cu-Cy complex is also an effective method for causing cell death.
FIGS. 14A-D depict fluorescence images of MCF-7 cells before and after 1 Gy X-ray exposure by an OLYMPUS IX71 microscope. Calcein and ethidiumhomodimer 1 (EthD-1) were used as the stains showing cells alive (green) and dead (red) respectively. Each of the images was taken immediately after staining, without further cell incubation.
MCF-7 cells were seeded into two 6-well plates (A and B) at 5,000 cells/well and incubated for 48 h at 37° C. in a humidified atmosphere of 5% v/v CO2 at dark. On the day of the experiment, the culture medium was removed and 5 mL medium containing 0 and 40 μg/ml Cu-Cy particles were added to different wells. […] The cells were viewed under an OLYMPUS IX71 fluorescence microscope.

[4] = test system: human prostate cancer (PC3) cells; test: X-ray (2 Gy) destruction of PC3 cells, fluorescence imaging; format: cell-based; conditions: Cu-Cy crystals plus X-ray 2 Gy
From the text: FIGS. 14A-14D depict the comparison of X-ray (2 Gy) destruction on human prostate cancer (PC3) cells without (top row, FIG. 14A and FIG. 14B) and with (bottom row, FIG. 14C and FIG. 14D) Cu-Cy crystals. […] The scale bar is always 100 μm.
As such, the combination of the disclosed Cu-Cy material and a source of radiation provides an effective method for inducing cell death.

MCF-7 tumors = format: in vivo, nude mice
Description: A suspension of 10×10^6MCF-7 cancer cell lines was injected subcutaneously into flanks on both shoulder and leg area of nude mice. Mice were monitored on a daily basis for the growth of tumors (FIG. 24). […] Saline (10 μL, as control, left shoulder) and Cu-Cy with concentration about 0.8 mg/mL (10 μL-right shoulder, 15 μL-left leg and 20 μL-right leg) were injected intra-tumorally. At one minute post-injection, mice were anesthetized with 2% (v/v) isofluorane, and tumors were irradiated with an X-ray dose of 5 Gy. Without X-ray treatment (top row), the tumors grew as time progressed, and there was no apparent size difference among Cu-Cy dosages of 10, 15, and 20 μl. Meanwhile, the tumors with no Cu-Cy (saline only) treatment were larger than the tumors with Cu-Cy treatment. […] The animals were sacrificed via CO2 inhalation and cervical […] on the day 13 of tumor growth. Absent X-ray radiation (top row), the tumors without Cu-Cy treatment grew to a somewhat larger volume than those treated by Cu-Cy, which indicates the minor toxicity from the Cu-Cy particles themselves. […] This is seen by comparing the two tumors treated with saline with and without X-ray radiation. For the treatment with 20 μL of Cu-Cy particles at 5 Gy dose, the tumor size is reduced to about 3 mm in diameter while the untreated tumor size is about 10 mm in diameter.

Stability in solution = format: physicochemical; conditions: aqueous solution and other common solvents

Cu3Cl(SR)2 wherein R is —CH2CH2NH2 [Cu-Cy]
cellular viability (MCF-7 cells; Cu-Cy 0.1 μg/ml): about 95%
cellular viability (MCF-7 cells; Cu-Cy 200 μg/ml): about 70%
cell death ([1]; Cu-Cy crystals alone, no UV irradiation): does not result in significant cell death
cell death ([1]; Cu-Cy crystals plus UV light 350 nm for 2 minutes): significant cell death
cellular death [2]: significant cellular death
cell destruction ([3]; Cu-Cy coupled with X-ray treatment (1 Gy; 2 Gy elsewhere in the source)): significant cell destruction
cell death ([3]; Cu-Cy particles alone, no X-ray): little cell death
cell death [4]: Significant cell death
tumor size (diameter) (MCF-7 tumors; 20 μL Cu-Cy (about 0.8 mg/mL) intra-tumoral, X-ray 5 Gy, day 13): about 3 mm
toxicity of Cu-Cy particles themselves in vivo (MCF-7 tumors; mouse, in vivo): slight toxicity in vivo
tumor growth (MCF-7 tumors; with X-ray radiation 5 Gy, 15 and 20 μL Cu-Cy dosages): greatly reduced
tumor size or growth (MCF-7 tumors; without X-ray, Cu-Cy 10, 15, 20 μL): does not significantly reduce tumor size or growth
stability (Stability in solution): stable in aqueous solution
